Laboratory results published in publication PMC2248166, “Quantitative peptide binding motifs for 19 human and mouse MHC class I molecules derived using positional scanning combinatorial peptide libraries” (Immunome Research, 2008).

Assays:
[1] = biological target: HLA A*0201 (Homo sapiens, UniProt P04439, D140Y/D185E/D98H/E176V/E277Q/G131W/G231S/I119V/I121R/I166T/I218V/L300P/L318F/N151K/N90K/P208A/P217A/Q86G/Q94H/R138H/R169H/T345S); details: positional scanning combinatorial 9-mer library; normalized to 1.0 for the best residue at each position
[2] = biological target: HLA B*1503 (Homo sapiens, UniProt P01889, A329T/A93T/A95T/C349S/D201E/D98Y/E187L/E204Q/K202T/N87E/Q94N/R155S/R180L/S121R/S35A/V306I/V36M/Y140S/Y91S); experiment: biochemical; type: binding
[3] = biological target: HLA B*5101 (Homo sapiens, UniProt P01889, A329T/A93T/A95T/C349S/D138N/D201E/D98Y/E187L/E204Q/E69T/G107R/I218V/K202T/L105A/L119W/N104I/Q94N/R106L/R155S/R180L/S101N/S121T/S35A/S48A/V306I/V36M/Y195H/Y91F); type: binding
[4] = biological target: HLA B*3501 (Homo sapiens, UniProt P01889, A329T/A93T/A95T/C349S/D201E/D98Y/E176V/E187L/E204Q/E69T/I218V/K202T/L119I/Q94N/R155S/R180L/S121R/S35A/S48A/T118I/V127L/V306I/V36M/Y140S/Y91F); type: binding
[5] = biological target: HLA A*6802 (Homo sapiens, UniProt P04439, A269V/D140Y/D185E/E176V/E277Q/E87N/F33Y/G231S/I121R/I166T/I218V/L180W/L300P/L318F/N151K/P208A/P217A/Q86R/R138H/R169H/S129P/T345S/V36M); type: binding
[6] = biological target: HLA B*5802 (Homo sapiens, UniProt P01889, A329T/C349S/D201E/D98Y/E176V/E187L/E204Q/E69T/G107R/I218V/I90N/K202T/L105A/N104I/N87E/Q89R/Q94S/R106L/R155S/R180L/R86G/S101N/S121W/S35A/S48A/V127L/V306I/V36M/Y140S/Y91M); type: binding
[7] = biological target: HLA B*5801 (Homo sapiens, UniProt P01889, A329T/C349S/D201E/D98Y/E176V/E187L/E204Q/E69T/G107R/I218V/I90N/K202T/L105A/L119I/N104I/N87E/Q89R/Q94S/R106L/R155S/R180L/R86G/S101N/S121R/S35A/S48A/T118I/V127L/V306I/V36M/Y140S/Y91M); type: binding
[8] = biological target: HLA B*2705 (Homo sapiens, UniProt P01889, D138H/D201E/E176V/E204Q/G107R/H137Y/K202T/N104T/N87E/Q56L/Q94K/R106L/R155S/R180L/S101D/S121N/S48T/Y140D/Y33H/Y91C); type: binding; details: positional scanning combinatorial 9-mer library; normalized to 1.0 for the best residue at each position
[9] = biological target: HLA B*0702 (Homo sapiens, UniProt P01889); type: binding; details: positional scanning combinatorial 9-mer library; normalized to 1.0 for the best residue at each position
[10] = biological target: HLA B*1501 (Homo sapiens, UniProt P01889, A329T/A93T/A95T/C349S/D201E/D98Y/E187L/E204Q/E69M/E70A/K202T/N87E/Q94N/R155S/R180W/S121R/S35A/S48A/V306I/V36M/Y140S/Y91S); experiment: biochemical; type: binding
[11] = biological target: HLA A*3001 (Homo sapiens, UniProt P04439, D140H/D185E/E176W/F33S/G80R/H175R/K168Q/R138E/R41S); experiment: biochemical; type: binding
[12] = biological target: H-2 D^d (Mus musculus, UniProt P01900); type: binding
[13] = biological target: HLA B*5301 (Homo sapiens, UniProt P01889, A329T/A93T/A95T/C349S/D201E/D98Y/E176V/E187L/E204Q/E69T/G107R/I218V/K202T/L105A/L119I/N104I/Q94N/R106L/R155S/R180L/S101N/S121R/S35A/S48A/T118I/V127L/V306I/V36M/Y140S/Y91F); type: binding
[14] = biological target: HLA B*5401 (Homo sapiens, UniProt P01889, A329T/C349S/D138N/D201E/E176V/E187T/E204Q/E69G/I76V/K202T/L119W/R155S/R180L/S121T/S35A/S48A/V127L/V306I/V36M/Y140L); type: binding
[15] = biological target: HLA B*0801 (Homo sapiens, UniProt P01889, A93T/A95T/D138N/E176V/E187T/K202T/Q94N/R180D/S35A/V36M/Y33D/Y91F); experiment: biochemical; type: binding
[16] = biological target: H-2 D^b (Mus musculus, UniProt P01899); type: binding
[17] = biological target: HLA A*3201 (Homo sapiens, UniProt P04439, A270S/D101S/D185E/E176V/E277Q/F133L/G103R/G107R/G231S/H175R/I121M/I218V/I322F/K168Q/L105A/L300P/L318F/M331R/P208A/P217A/Q94H/R106L/R138Q/S129P/T104I/T323A/T345S/V100E/V321M/V358M); experiment: biochemical; type: binding
[18] = biological target: H-2 K^k (Mus musculus, UniProt P04223); type: binding
H-2 K^k, sequence (P01887 21-119): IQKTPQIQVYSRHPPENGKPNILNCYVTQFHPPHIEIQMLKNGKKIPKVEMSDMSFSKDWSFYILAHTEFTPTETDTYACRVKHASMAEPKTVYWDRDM
H-2 K^k, sequence (P04223 22-369): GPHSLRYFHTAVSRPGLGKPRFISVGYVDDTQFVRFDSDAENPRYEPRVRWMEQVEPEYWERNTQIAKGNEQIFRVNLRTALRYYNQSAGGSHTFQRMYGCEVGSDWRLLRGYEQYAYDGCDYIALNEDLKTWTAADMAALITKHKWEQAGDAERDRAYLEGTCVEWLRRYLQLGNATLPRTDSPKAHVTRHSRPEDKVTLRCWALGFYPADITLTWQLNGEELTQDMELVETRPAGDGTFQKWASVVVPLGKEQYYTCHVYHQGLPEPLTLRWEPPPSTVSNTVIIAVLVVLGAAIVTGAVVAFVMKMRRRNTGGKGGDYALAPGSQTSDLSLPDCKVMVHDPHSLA

H-2 D^d, sequence (P01900 whole entry, looked up): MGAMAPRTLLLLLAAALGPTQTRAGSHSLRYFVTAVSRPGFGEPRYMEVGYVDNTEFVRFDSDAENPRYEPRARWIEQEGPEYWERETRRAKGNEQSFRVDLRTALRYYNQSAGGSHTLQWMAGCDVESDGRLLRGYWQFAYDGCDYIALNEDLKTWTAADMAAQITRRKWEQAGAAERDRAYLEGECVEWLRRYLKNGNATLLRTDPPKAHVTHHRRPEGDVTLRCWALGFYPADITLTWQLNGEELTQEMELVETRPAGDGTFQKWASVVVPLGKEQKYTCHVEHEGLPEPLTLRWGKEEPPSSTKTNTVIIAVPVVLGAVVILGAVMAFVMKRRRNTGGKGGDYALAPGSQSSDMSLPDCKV
H-2 D^b, sequence (P01887 21-119): as the sequence (P01887 21-119) above
H-2 D^b, sequence (P01899 25-362): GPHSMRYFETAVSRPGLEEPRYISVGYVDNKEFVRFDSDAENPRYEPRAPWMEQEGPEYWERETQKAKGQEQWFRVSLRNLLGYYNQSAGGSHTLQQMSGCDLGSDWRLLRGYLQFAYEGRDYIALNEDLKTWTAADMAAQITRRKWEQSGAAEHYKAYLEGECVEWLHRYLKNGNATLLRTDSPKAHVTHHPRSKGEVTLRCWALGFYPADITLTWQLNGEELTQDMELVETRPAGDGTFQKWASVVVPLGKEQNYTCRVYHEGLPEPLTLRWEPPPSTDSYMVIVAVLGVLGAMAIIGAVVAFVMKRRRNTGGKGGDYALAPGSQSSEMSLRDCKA

Sequence | Normalized average relative binding affinity (ARB), HLA A*0201 [1] | Normalized average relative binding affinity (ARB), HLA B*1503 [2] | Normalized average relative binding affinity (ARB), HLA B*5101 [3] | Normalized average relative binding affinity (ARB), HLA B*3501 [4] | Normalized average relative binding affinity (ARB), HLA A*6802 [5] | Normalized average relative binding affinity (ARB), HLA B*5802 [6] | Normalized average relative binding affinity (ARB), HLA B*5801 [7] | Normalized average relative binding affinity (ARB), HLA B*2705 [8] | Normalized average relative binding affinity (ARB), HLA B*0702 [9] | Normalized average relative binding affinity (ARB), HLA B*1501 [10] | Normalized average relative binding affinity (ARB), HLA A*3001 [11] | Normalized average relative binding affinity (ARB), H-2 Dd [12] | Normalized average relative binding affinity (ARB), HLA B*5301 [13] | Normalized average relative binding affinity (ARB), HLA B*5401 [14] | Normalized average relative binding affinity (ARB), HLA B*0801 [15] | Normalized average relative binding affinity (ARB), H-2 Db [16] | Normalized average relative binding affinity (ARB), HLA A*3201 [17] | Normalized average relative binding affinity (ARB), H-2 Kk [18]
XXRXXXXXX [3064.0055] | 0.019 | 0.25 | 0.33 | 0.074 | 0.018 | 0.38 | 0.058 | 0.16 | 0.63 | 0.69 | 1.0 | 0.0031 | 0.029 | 0.062 | 1.0 | 0.023 | 0.19 | 0.19
XXSXXXXXX [3064.0056] | 0.17 | 0.41 | 0.16 | 0.11 | 0.50 | 0.066 | 0.33 | 0.27 | 0.093 | 0.41 | 0.040 | 0.0061 | 0.15 | 0.014 | 0.057 | 0.084 | 0.29 | 0.43
XXTXXXXXX [3064.0057] | 0.14 | 0.23 | 0.14 | 0.14 | 0.14 | 0.16 | 0.39 | 0.26 | 0.035 | 0.12 | 0.0040 | 0.0048 | 0.045 | 0.012 | 0.054 | 0.057 | 0.16 | 0.11
XXVXXXXXX [3064.0058] | 0.25 | 1.0 | 0.25 | 0.19 | 0.64 | 0.56 | 1.0 | 0.19 | 0.040 | 0.14 | 0.0059 | 0.0094 | 0.11 | 0.034 | 0.024 | 0.17 | 0.31 | 0.26
